Among the data in ChEMBL document CHEMBL1131696, “Highly constrained dipeptoid analogues containing a type II' beta-turn mimic as novel and selective CCK-A receptor ligands” (Bioorg Med Chem Lett, 1999) are IC50 values, retold here.

Where only a bound is given, the exact number is not on record here.

In experiment [1] the target is T1, Gastrin/cholecystokinin type B receptor (Mus musculus, UniProt P56481).
T1 sequence (P56481 whole entry): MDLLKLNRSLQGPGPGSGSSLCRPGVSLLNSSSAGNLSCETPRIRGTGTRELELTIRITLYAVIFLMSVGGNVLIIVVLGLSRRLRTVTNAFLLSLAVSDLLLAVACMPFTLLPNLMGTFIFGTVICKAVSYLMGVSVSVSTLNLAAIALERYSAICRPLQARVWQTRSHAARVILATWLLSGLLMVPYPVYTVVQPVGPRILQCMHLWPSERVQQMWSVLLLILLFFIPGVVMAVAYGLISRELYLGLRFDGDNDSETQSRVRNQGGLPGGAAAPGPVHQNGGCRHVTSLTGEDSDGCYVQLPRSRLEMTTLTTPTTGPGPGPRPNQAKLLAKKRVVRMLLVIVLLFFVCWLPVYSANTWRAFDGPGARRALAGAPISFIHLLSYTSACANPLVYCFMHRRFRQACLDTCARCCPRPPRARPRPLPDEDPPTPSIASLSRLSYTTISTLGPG
Nature of the experiment: Inhibition of [3H]propionyl-CCK-8 binding to mouse cerebral cortex membrane cholecystokinin-B (CCK-B) receptor. Format: tissue-based.

Experiment [2] has as its target T2, Cholecystokinin receptor type A (Rattus norvegicus, UniProt P30551).
T2 sequence (P30551 whole entry): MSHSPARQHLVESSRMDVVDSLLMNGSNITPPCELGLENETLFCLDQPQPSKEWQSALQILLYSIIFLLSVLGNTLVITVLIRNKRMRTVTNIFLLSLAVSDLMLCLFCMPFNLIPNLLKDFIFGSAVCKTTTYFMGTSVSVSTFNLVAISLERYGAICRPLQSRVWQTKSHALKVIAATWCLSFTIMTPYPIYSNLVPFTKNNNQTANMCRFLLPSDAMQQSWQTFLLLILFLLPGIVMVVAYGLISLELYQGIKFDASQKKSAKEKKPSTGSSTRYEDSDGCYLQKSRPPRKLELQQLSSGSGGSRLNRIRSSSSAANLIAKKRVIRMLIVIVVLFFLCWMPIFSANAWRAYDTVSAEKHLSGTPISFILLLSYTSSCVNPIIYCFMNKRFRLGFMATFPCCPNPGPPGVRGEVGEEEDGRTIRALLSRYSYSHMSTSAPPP
Briefly: Inhibition of [3H]propionyl-CCK-8 binding to rat pancreas cholecystokinin-A (CCK-A) receptor.

Turning to `O=C(O)C[C@@H](Cc1ccccc1)NC(=O)[C@@H]1Cc2c([nH]c3ccccc23)[C@H]2C[C@H](NC(=O)OCc3ccccc3)C(=O)N21`, the IC50 was found to be 2.7 µM in experiment [1] and 7.4 nM in experiment [2].

With `C[Si](C)(C)CCOC(=O)C[C@@H](Cc1ccccc1)NC(=O)[C@@H]1Cc2c([nH]c3ccccc23)[C@@H]2C[C@H](NC(=O)OCc3ccccc3)C(=O)N12`, the figures for the IC50 in experiment [1] and in experiment [2] were over 10 µM and 1400 nM, respectively.

On to `CC(C)(C)OC(=O)N[C@H]1C[C@@H]2c3[nH]c4ccccc4c3C[C@@H](C(=O)N[C@@H](CC(=O)O)Cc3ccccc3)N2C1=O`, for which the IC50 in experiment [1] was over 10 µM; in experiment [2] it was 4480 nM.

As to `CC(C)(C)OC(=O)N[C@H]1C[C@@H]2c3[nH]c4ccccc4c3C[C@@H](C(=O)N[C@H](CC(=O)O)Cc3ccccc3)N2C1=O`, the IC50 was over 10 µM in experiment [1] and over 10000 nM in experiment [2].

For the compound `C[Si](C)(C)CCOC(=O)C[C@H](Cc1ccccc1)NC(=O)[C@@H]1Cc2c([nH]c3ccccc23)[C@@H]2C[C@H](NC(=O)OCc3ccccc3)C(=O)N12`, the IC50 in experiment [1] was over 10 µM; in experiment [2], 460 nM.

In the case of `C[Si](C)(C)CCOC(=O)C[C@H](Cc1ccccc1)NC(=O)[C@@H]1Cc2c([nH]c3ccccc23)[C@H]2C[C@H](NC(=O)OCc3ccccc3)C(=O)N21`, the IC50 in experiment [1] was found to be 2.4 µM; in experiment [2], 220 nM.

As to `C[Si](C)(C)CCOC(=O)C[C@@H](Cc1ccccc1)NC(=O)[C@@H]1Cc2c([nH]c3ccccc23)[C@H]2C[C@H](NC(=O)OCc3ccccc3)C(=O)N21`, the IC50 in experiment [1] stood at 1.5 µM; in experiment [2], 180 nM.

`O=C(O)C[C@H](Cc1ccccc1)NC(=O)[C@@H]1Cc2c([nH]c3ccccc23)[C@H]2C[C@H](NC(=O)OCc3ccccc3)C(=O)N21`: the IC50 is over 10 µM in experiment [1] and 88 nM in experiment [2].

As to `O=C(O)C[C@@H](Cc1ccccc1)NC(=O)[C@@H]1Cc2c([nH]c3ccccc23)[C@@H]2C[C@H](NC(=O)OCc3ccccc3)C(=O)N12`, the IC50 is over 10 µM in experiment [1] and 1000 nM in experiment [2].

Regarding `O=C(O)C[C@H](Cc1ccccc1)NC(=O)[C@@H]1Cc2c([nH]c3ccccc23)[C@@H]2C[C@H](NC(=O)OCc3ccccc3)C(=O)N12`, the figures for the IC50 in experiment [1] and in experiment [2] were over 10 µM and 635 nM, respectively.
